These results are taken from patent US12291508B2, “Hydrazide containing nuclear transport modulators and uses thereof” (Karyopharm Therapeutics Inc., priority 2011, dated 2025).

The subject of data set [1] is MM.1S multiple myeloma cell line. Put plainly: CellTiter 96 AQueous One Solution cell proliferation assay, MM.1S. Type of data set: cell-based. To be noted: Homo sapiens, MM1.S, 72 h of treatment, read-out: Cytotoxicity Assay. From the text:
The CellTiter 96® AQueous One Solution cell proliferation assay (Promega) was used on MM.1S multiple myeloma cell line to study the cytotoxic and cytostatic properties of the compounds. The assay is based on the cleavage of the tetrazolium salt, MTS, in the presence of an electron-coupling reagent PES (phenazine ethosulfate). The MTS tetrazolium compound is bioreduced by cells into a colored formazan product that is soluble in tissue culture medium. This conversion is presumably accomplished by NADPH or NADH produced by dehydrogenase enzymes in metabolically active cells. Assays are performed by adding a small amount of the CellTiter 96® AQueous One solution reagent directly to culture wells, incubating for 1-4 hours and then recording the absorbance at 490 nm with a 96-well plate reader.
The cells were seeded at 5×10^3 to 1.5×10^4 cells in each well of a 96-well plate in 100 μL of fresh culture medium and adherent cells were allowed to attach overnight. The stock solutions of the compounds were diluted in cell culture medium to obtain eight concentrations of each drug, ranging from 1 nM to 30 μM and DMSO at less than 1% v/v was used as a negative control. The resulting drug solutions were transferred onto the cells. After 72 h of treatment, 20 μl of CellTiter 96® AQueous reagent was added into each well of the 96-well assay plates and the plate was incubated at 37° C. for 1-4 hours in a humidified, 5% CO2 atmosphere. Then the absorbance of each well was recorded at 490 nm using a 96-well plate reader. In most cases, the assay was performed in triplicate and the results were presented as half maximal inhibitory concentration (IC50). Optical density versus compound concentration was plotted and analyzed using non-linear regression equations (IDBS XLfit) and the IC50 for each compound was calculated.

Data set [2] deals with T1, CRM1-mediated nuclear export (Homo sapiens, UniProt O14980).
T1 construct: endogenous in cells; host or cells: U2OS-RevGFP cells
As to the kind of experiment: RevGFP assay, inhibition of nuclear export. Type of data set: cell-based. To be noted: U2OS-RevGFP cells, about 1 hr incubation; read-out: Rev Export. As to the method: The ability of exemplary compounds of the invention to inhibit CRM1-mediated nuclear export was assessed in a RevGFP assay. Rev is a protein from human immunodeficiency virus type 1 (HIV-1) and contains a nuclear export signal (NES) in its C-terminal domain and a nuclear localization signal (NLS) in its N-terminal domain. Nuclear export of Rev protein is dependent on the classical NES/CRM1 pathway (Neville et al. 1997).
In this assay, U2OS-RevGFP cells were seeded onto clear-bottomed, black, 384-well plates the day before the experiment. Compounds were serially diluted 1:2 in DMEM, starting from 40 μM in a separate, 384-well plate, and then transferred onto the cells. The cells were incubated with compound for about 1 hr before fixation with 3.7% formaldehyde and nuclei staining with Hoechst 33258. The amount of GFP in cell nuclei was measured and the IC50 of each compound was determined (Kau et al. 2003).

Data set [3] in a line: Pharmacokinetic (PK) assay, plasma AUC in mice. Type of data set: in vivo. To be noted: 10 mg/kg po; for AUC(0-inf): mouse, plasma. As to the method:
AUC. Blood was collected from mice (N=3) to contribute to the total of 10 time points (pre-dose, 5 min, 15 min, 30 min, 1 hour, 2 hours, 4 hours, 8 hours, 12 hours and 24 hours post dose). Mice were bled on a rotating basis, each mouse contributing 3 time points to the blood collection. At the designated time points, animals were anaesthetized under isoflurane, and approximately 110 μL of blood per time point was collected via retro-orbital puncture into pre-cooled K2EDTA (anti-coagulant) tubes. Blood samples were put on wet ice and centrifuged (2000 g, 5 min at 4° C.) to obtain plasma within 30 minutes of sample collection. All samples were stored frozen at approximately −80° C. until analysis. Prior to analysis, samples were mixed with internal standard (dexamethasone) in acetonitrile, vortexed, centrifuged, and supernatant was injected for analysis. Concentration of compounds in plasma was determined using LC-MS-MS instrumentation (API 4000, Triple Quadruple with electrospray ionization; Acuity Ultra Performance Liquid Chromatography column C18, with MeOH and formic acid as organic solvents). AUC values were calculated using WinNonlin Professional 6.2 software package, non-compartmental pharmacokinetic model NCA200.

The nature of data set [4]: Brain to Plasma (B:P) ratio in mice. Type of data set: in vivo. To be noted: 10 mg/kg po, 2 hours post-dose; for Kp at 2 h: mouse, brain/plasma. As to the method: Brain to Plasma (B:P) Ratio. […] Following collection, brain tissue was rinsed with cold saline, dried on filter paper, weighed and snap-frozen by placing on dry ice. All samples were stored frozen at approximately −80° C. until analysis. […] Plasma samples were treated with the identical method (except homogenization step) and the concentration of compound in each matrix was calculated based on generated standard curves.

Where a name gives a salt, the structure may show the parent alone. Some results are limits rather than exact numbers.

T1 sequence (O14980 whole entry): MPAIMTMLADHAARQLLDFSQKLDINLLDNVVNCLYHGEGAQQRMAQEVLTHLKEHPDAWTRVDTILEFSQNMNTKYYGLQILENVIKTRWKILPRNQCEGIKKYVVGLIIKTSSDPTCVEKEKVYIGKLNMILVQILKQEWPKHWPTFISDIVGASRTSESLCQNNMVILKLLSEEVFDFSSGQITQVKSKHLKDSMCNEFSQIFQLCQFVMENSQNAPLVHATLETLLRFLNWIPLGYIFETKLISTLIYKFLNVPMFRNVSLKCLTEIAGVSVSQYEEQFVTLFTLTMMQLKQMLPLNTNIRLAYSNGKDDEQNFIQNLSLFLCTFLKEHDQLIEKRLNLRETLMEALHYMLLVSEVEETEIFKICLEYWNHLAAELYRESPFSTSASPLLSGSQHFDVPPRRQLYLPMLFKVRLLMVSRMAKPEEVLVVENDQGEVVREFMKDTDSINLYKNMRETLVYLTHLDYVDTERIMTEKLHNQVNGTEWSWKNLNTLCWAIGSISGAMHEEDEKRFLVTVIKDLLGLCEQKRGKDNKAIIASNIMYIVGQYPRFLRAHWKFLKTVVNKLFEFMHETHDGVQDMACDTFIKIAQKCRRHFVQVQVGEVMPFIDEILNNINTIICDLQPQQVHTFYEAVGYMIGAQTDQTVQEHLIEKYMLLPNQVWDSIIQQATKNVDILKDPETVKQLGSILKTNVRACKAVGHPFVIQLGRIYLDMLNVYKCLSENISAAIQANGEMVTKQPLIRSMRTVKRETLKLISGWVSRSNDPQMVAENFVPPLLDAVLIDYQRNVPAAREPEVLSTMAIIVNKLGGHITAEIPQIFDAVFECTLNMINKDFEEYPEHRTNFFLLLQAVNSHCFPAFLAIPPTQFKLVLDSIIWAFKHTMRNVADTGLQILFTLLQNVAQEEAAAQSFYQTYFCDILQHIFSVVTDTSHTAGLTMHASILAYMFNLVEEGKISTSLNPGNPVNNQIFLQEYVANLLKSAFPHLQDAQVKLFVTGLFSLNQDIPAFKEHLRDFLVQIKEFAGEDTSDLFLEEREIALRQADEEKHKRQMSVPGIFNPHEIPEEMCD

Take `O=C(/C=C\n1cnc(-c2cc(C(F)(F)F)cc(C(F)(F)F)c2)n1)NN1CCCCCC1` [Compound I-16, (Z)—N-(azepan-1-yl)-3-(3-(3,5-bis(trifluoromethyl)phenyl)-1H-1,2,4-triazol-1-yl)acrylamide]: the IC50 in data set [1] is ≤ 1000 nM.
On the same count and under the same terms, as for `O=C(/C=C\n1cnc(-c2cc(C(F)(F)F)cc(C(F)(F)F)c2)n1)NNc1ccncn1` [Compound I-23, (Z)-3-(3-(3,5-bis(trifluoromethyl)phenyl)-1H-1,2,4-triazol-1-yl)-N′-(pyrimidin-4-yl)acrylohydrazide], the figure is ≤ 1000 nM.
For orientation: AUC(0-inf) means total exposure, with the tail of the curve extrapolated. Broadly, the Kp is the ratio of the level in a tissue or fluid to that in plasma or blood. Turning to `CN(NC(=O)/C=C\n1cnc(-c2cc(C(F)(F)F)cc(C(F)(F)F)c2)n1)c1cnccn1` [Compound I-8, (Z)-3-(3-(3,5-bis(trifluoromethyl)phenyl)-1H-1,2,4-triazol-1-yl)-N′-methyl-N′-(pyrazin-2-yl)acrylohydrazide], the IC50 in data set [2] and in data set [1] was ≤ 1000 nM in each case. Further, the AUC(0-inf) in data set [3] turned out to be 4600 ng·h/mL. In addition, the concentration ratio (Kp) at 2 h in data set [4] was 2.1.
Turning to `O=C(/C=C/n1cnc(-c2cc(C(F)(F)F)cc(C(F)(F)F)c2)n1)NNc1cnccn1` [Compound I-18, (E)-3-(3-(3,5-bis(trifluoromethyl)phenyl)-1H-1,2,4-triazol-1-yl)-N′-(pyrazin-2-yl) acrylohydrazide], the IC50 in data set [1] is ≤ 1000 nM. Further, the AUC(0-inf) in data set [3] was determined as 7140 ng·h/mL.
Regarding `Cc1cccnc1N(C)NC(=O)/C=C\n1cnc(-c2cc(C(F)(F)F)cc(C(F)(F)F)c2)n1` [Compound I-9, (Z)-3-(3-(3,5-bis(trifluoromethyl)phenyl)-1H-1,2,4-triazol-1-yl)-N′-methyl-N′-(3-methylpyridin-2-yl)acrylohydrazide], in data set [1], the IC50 was ≤ 1000 nM.
On the same count and under the same terms, as for `O=C(/C=C\n1cnc(-c2cc(C(F)(F)F)cc(C(F)(F)F)c2)n1)NNC1CC1` [Compound I-25, (Z)-3-(3-(3,5-bis(trifluoromethyl)phenyl)-1H-1,2,4-triazol-1-yl)-N′-cyclopropylacrylohydrazide], the figure is ≤ 1000 nM.
On the same count and under the same terms, in the case of `Cc1cc(NNC(=O)/C=C\n2cnc(-c3cc(C(F)(F)F)cc(C(F)(F)F)c3)n2)nc(C)n1` [Compound I-17, (Z)-3-(3-(3,5-bis(trifluoromethyl)phenyl)-1H-1,2,4-triazol-1-yl)-N′-(2,6-dimethylpyrimidin-4-yl)acrylohydrazide] it was ≤ 1000 nM; in that of `CCN1CCN(NC(=O)/C=C\n2cnc(-c3cc(C(F)(F)F)cc(C(F)(F)F)c3)n2)CC1` [Compound I-21, (Z)-3-(3-(3,5-bis(trifluoromethyl)phenyl)-1H-1,2,4-triazol-1-yl)-N-(4-ethylpiperazin-1-yl)acrylamide], ≤ 1000 nM.
`O=C(/C=C\n1cnc(-c2cc(C(F)(F)F)cc(C(F)(F)F)c2)n1)NN1CCCC1` [Compound I-6, (Z)-3-(3-(3,5-bis(trifluoromethyl)phenyl)-1H-1,2,4-triazol-1-yl)-N-(pyrrolidin-1-yl)acrylamide]: in data set [1], the IC50 was ≤ 1000 nM.
For `O=C(/C=C\n1cnc(-c2cc(C(F)(F)F)cc(C(F)(F)F)c2)n1)NNC1CCS(=O)(=O)C1` (stereo not shown) [Compound I-15, (Z)-3-(3-(3,5-bis(trifluoromethyl)phenyl)-1H-1,2,4-triazol-1-yl)-N′-(1,1-dioxotetrahydrothiophen-3yl)acrylohydrazide], in data set [1], the IC50 was ≤ 1000 nM.
On to `O=C(/C=C\n1cnc(-c2cc(C(F)(F)F)cc(C(F)(F)F)c2)n1)NNc1cnc2ccccc2n1` [Compound I-14, (Z)-3-(3-(3,5-bis(trifluoromethyl)phenyl)-1H-1,2,4-triazol-1-yl)-N′-(quinoxalin-2-yl)acrylohydrazide], for which the IC50 in data set [1] is ≤ 1000 nM.
As for `CN(NC(=O)/C=C\n1cnc(-c2cc(C(F)(F)F)cc(C(F)(F)F)c2)n1)c1cccnc1` [Compound I-11, (Z)-3-(3-(3,5-bis(trifluoromethyl)phenyl)-1H-1,2,4-triazol-1-yl)-N′-methyl-N′-(pyridin-3-yl)acrylohydrazide], in data set [1], the IC50 is ≤ 1000 nM.
Same read-out and setting: as for `O=C(/C=C\n1cnc(-c2cc(C(F)(F)F)cc(C(F)(F)F)c2)n1)NN1CCOCC1` [Compound I-22, (Z)-3-(3-(3,5-bis(trifluoromethyl)phenyl)-1H-1,2,4-triazol-1-yl)-N-morpholinoacrylamide], the figure is ≤ 1000 nM.
Take `O=C(/C=C\n1cnc(-c2cc(C(F)(F)F)cc(C(F)(F)F)c2)n1)N1CC(F)(F)C1` [Compound X-3, reference compound]: the IC50 in data set [2] and in data set [1] was ≤ 1000 nM each time. Moreover, the “B:P” value in data set [4] worked out at 5.0.
With `Cc1ccc(NNC(=O)/C=C\n2cnc(-c3cc(C(F)(F)F)cc(C(F)(F)F)c3)n2)nc1` [Compound I-10, (Z)-3-(3-(3,5-bis(trifluoromethyl)phenyl)-1H-1,2,4-triazol-1-yl)-N′-(5-methylpyridin-2-yl)acrylohydrazide], the IC50 in data set [1] is ≤ 1000 nM. The compound also registered an AUC(0-inf) in data set [3] of 4170 ng·h/mL. Further, the Kp at 2 h in data set [4] is 0.77.
Consider `O=C(/C=C\n1cnc(-c2cc(C(F)(F)F)cc(C(F)(F)F)c2)n1)NNc1cccnc1` [Compound I-13, (Z)-3-(3-(3,5-bis(trifluoromethyl)phenyl)-1H-1,2,4-triazol-1-yl)-N′-(pyridin-3-yl)acrylohydrazide], for which the IC50 in data set [1] was ≤ 1000 nM.
Consider `O=C(/C=C\n1cnc(-c2cc(C(F)(F)F)cc(C(F)(F)F)c2)n1)NNc1ccncc1` [Compound I-19, (Z)-3-(3-(3,5-bis(trifluoromethyl)phenyl)-1H-1,2,4-triazol-1-yl)-N′-(pyridin-4-yl) acrylohydrazide hydrochloride], for which the IC50 in data set [1] is ≤ 1000 nM. The AUC(0-inf) in data set [3] worked out at 4020 ng·h/mL. Besides, in data set [4], the Kp at 2 h is 0.2.
As to `CC(C)OC(=O)/C=C\n1cnc(-c2cc(OC(C)C)cc(C(F)(F)F)c2)n1` [Compound X-2, reference compound], the IC50 in data set [2] and in data set [1] was ≤ 1000 nM each time.
As for `O=C(/C=C\n1cnc(-c2cc(C(F)(F)F)cc(C(F)(F)F)c2)n1)NN1CC(O)C1` [Compound I-26, (Z)-3-(3-(3,5-bis(trifluoromethyl)phenyl)-1H-1,2,4-triazol-1-yl)-N-(3-hydroxyazetidin-1-yl)acrylamide], in data set [1], the IC50 was ≤ 1000 nM.
For the compound `COc1cc(-c2ncn(/C=C\C(=O)OC(C)C)n2)cc(C(F)(F)F)c1` [Compound X-1, reference compound], the IC50 in data set [2] and in data set [1] was ≤ 1000 nM in each case. Also, the AUCInf entry in data set [3] (10 mg/kg) is reported as “below the limit of detection”.
On to `O=C(/C=C\n1cnc(-c2cc(C(F)(F)F)cc(C(F)(F)F)c2)n1)NN1CCN(Cc2ccccc2)CC1` [Compound I-20, (Z)-N-(4-benzylpiperazin-1-yl)-3-(3-(3,5-bis(trifluoromethyl)phenyl)-1H-1,2,4-triazol-1-yl) acrylamide], for which the IC50 in data set [1] is ≤ 1000 nM.
In the case of `O=C(/C=C\n1cnc(-c2cc(C(F)(F)F)c(Cl)c(C(F)(F)F)c2)n1)NNc1cnccn1` [Compound I-24, (Z)-3-(3-(4-chloro-3,5-bis(trifluoromethyl)phenyl)-1H-1,2,4-triazol-1-yl)-N′-(pyrazin-2-yl)acrylohydrazide], in data set [1], the IC50 was ≤ 1000 nM. In data set [3], this compound displayed an AUC(0-inf) of 3350 ng·h/mL. Moreover, the Kp at 2 h in data set [4] was 0.7.
